Source: patent US20230203098A1, “HUMAN TRANSFERRIN RECEPTOR BINDING PEPTIDE” (priority 2020, published 2023)
pKd: −log10 of the molar value. Like-named read-outs stand apart in the source and are kept apart here. *1 amine or outer side, *2 acyl side, *3 side chain or, on linkers, in order; H or OH if unused. Where a SMILES comes first, the peptide text is derived from it. Bridges are numbered along the chain shown (N, C = ends). Where no end group is shown, it is not given here. [ ]: non-standard residue; d: D form. The star is where a group is joined. ξ: configuration not given here. X6 = CC(C)[C@H](CC(=O)[C@H](Cc1ccccc1)N(C)[*:1])C(=O)[*:2]; X2 = O=C(O)c1cc(C(=O)*)ccc1-c1c2ccc(=O)cc-2oc2cc(O)ccc12; PEG12 = NCCOCCOCCOCCOCCOCCOCCOCCOCCOCCOCCOCCOCCC(=O)O; Tyr(Me) = COc1ccc(C[C@H](N[*:1])C(=O)[*:2])cc1; NMePhe(3-Cl) = CN[C@@H](Cc1cccc(Cl)c1)C(=O)O; NMeW = CN[C@@H](Cc1c[nH]c2ccccc12)C(=O)O; NMeY = CN[C@@H](Cc1ccc(O)cc1)C(=O)O; NMeF = CN[C@@H](Cc1ccccc1)C(=O)O; PEG4 = NCCOCCOCCOCCOCCC(=O)O; Aib = CC(C)(N)C(=O)O; ξC = NC(CS)C(=O)O

Legend:
[1] = molecular target: transferrin receptor (hTfR) (Homo sapiens, UniProt P02786); test: Intermolecular interaction evaluation test between transferrin receptor (hTfR) and peptide by surface plasmon resonance (SPR); format: binding
Chain of transferrin receptor (hTfR) (P02786 whole entry): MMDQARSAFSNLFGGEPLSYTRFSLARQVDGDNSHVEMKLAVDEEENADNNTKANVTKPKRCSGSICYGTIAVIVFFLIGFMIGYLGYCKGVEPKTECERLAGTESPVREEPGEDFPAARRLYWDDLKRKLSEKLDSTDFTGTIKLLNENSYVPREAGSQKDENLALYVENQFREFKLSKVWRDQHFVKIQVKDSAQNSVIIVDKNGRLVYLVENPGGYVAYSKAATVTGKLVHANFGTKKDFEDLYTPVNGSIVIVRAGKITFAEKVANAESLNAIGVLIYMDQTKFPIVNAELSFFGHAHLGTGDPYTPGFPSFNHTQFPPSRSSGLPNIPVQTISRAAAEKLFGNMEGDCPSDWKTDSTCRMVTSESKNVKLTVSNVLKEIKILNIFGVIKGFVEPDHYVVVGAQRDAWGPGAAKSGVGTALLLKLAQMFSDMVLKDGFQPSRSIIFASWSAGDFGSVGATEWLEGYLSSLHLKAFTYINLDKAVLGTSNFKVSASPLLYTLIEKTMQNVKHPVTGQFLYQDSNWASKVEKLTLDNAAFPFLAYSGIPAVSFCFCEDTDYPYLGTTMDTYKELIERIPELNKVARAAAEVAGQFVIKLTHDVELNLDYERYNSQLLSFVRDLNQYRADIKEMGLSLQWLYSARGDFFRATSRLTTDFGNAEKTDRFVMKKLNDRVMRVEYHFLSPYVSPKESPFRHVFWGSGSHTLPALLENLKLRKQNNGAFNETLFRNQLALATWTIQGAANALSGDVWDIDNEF
Procedure, shortened: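 Receptor was Ni-captured and EDC/NHS-fixed on an NTA chip; running buffer HEPES pH 8.0 with NaCl, Tween 20, BSA and 1.0% DMSO.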

[2] = system: Human breast cancer cells BT-549; test: Migration of 5-FAM peptide conjugates into human breast cancer cells BT-549 (fluorescence microscopy); format: cell-based; details: BT-549 cells, sample diluted to 100 nmol/L, 37° C., 3 hours
Method: Culturing was performed under conditions of 37° C. and 5% CO2.
Collagen Type I (Corning) was diluted to 50 µg/mL with 20 mmol/L acetic acid. A sterilized cover glass was placed in each well of the 24-well plate. After the diluted Collagen Type I solution was added to the plate, the plate was incubated at 37° C. for 1 hour. The Collagen Type I solution was removed from the plate and the plate was washed 3 times with PBS. The human breast cancer cells BT-549 were inoculated in an amount of 1 × 10^5 cells per 1 well and cultured overnight under conditions of 37° C. and 5% CO2.
The sample was diluted with the dilution medium to 100 nmol/L.
The sample solution was removed from the 24-well plate, and the BT-549 cells were washed three times with PBS. 4% paraformaldehyde phosphate buffer (FUJIFILM Wako Pure Chemical Corporation) was added at 500 µL/well, and the cells were allowed to stand at room temperature for 15 minutes and then washed three times with PBS. Further, Hoechst 33342 (Thermo Fisher Scientific) diluted with PBS to 2 µg/mL was added at 500 µL/well, and the cells were allowed to stand at room temperature under shading for 10 minutes and then washed three times with PBS. The cover glass was removed from the 24-well plate, and the cells were enclosed on a slide glass using fluorescent mounting medium (Agilent Technologies) and allowed to stand at room temperature under shading overnight. For the observation, an inverted fluorescence microscope DMI6000B (Leica Microsystems) was used, and the observation was performed at the wavelength for detecting FITC and DAPI. The scale bar in the figures indicates 50 µm.

hTfR-KI mice = test: Mouse brain localization confirmation test with FITC conjugate (immunohistochemical staining, single and multiple dose); format: in vivo; details: multiple dose test, 3.7 mg/kg every 10 minutes, 6 times
Method: In the same manner as in Example 5, the conjugate of the hTfR-binding special cyclic peptide No. 894 and the fluorescent substance FITC was administered to the hTfR-KI mice. The dose was adjusted to 3.7 mg/kg.
One hour after administration, the mice were anesthetized with isoflurane and subjected to a blood removal treatment by running normal saline from the left ventricle for 4 to 5 minutes. After that, the brain was collected for measuring the fluorescence intensity and stored in normal saline to prevent drying. This brain tissue was subjected to immunohistochemical staining using an anti-FITC antibody (MBL Life Science). The immunohistochemical staining in the brain tissue using the anti-FITC antibody was performed with a publicly known method and the staining was observed using a fluorescence microscope. Note that in the figure, red arrows indicate the cerebral capillaries and arrowheads indicate the Purkinje cells.
The localization of the above-mentioned conjugate in the brain tissue was confirmed by the immunohistochemical staining. Note that, in the figure, red arrows indicate the cerebral capillaries, arrowheads indicate the Purkinje cells, and yellow arrows indicate dendrites.

TfR-KI mice = details: mouse, in vivo
Method: hTfRNo.894-vivotag750 conjugate administration liquid (No. 894 administration liquid) : 4.8 µL of dimethyl sulfoxide (DMSO, Sigma Aldrich) was added to 6 µL of a 5 mM solution of the hTfRNo.894-vivotag750 conjugate synthesized in Example 2, 66 µL of the 20% hydroxypropyl-β-cyclodextrin solution was further added, and the mixture was mixed well. To this, 48 µL of polyethylene glycol 400 was further added and mixed to prepare a No. 894-administration liquid. […] The offspring (chimeric mice) thus obtained were determined by hair color, and individuals in which the ES cells contributed to the development of the organism at a higher rate, that is, individuals having a higher proportion of white hairs relative to their total body hairs, were selected. […] White-colored F1 mice were selected, DNA was extracted from their tail tissues and analyzed, and the mice in which the mouse transferrin receptor gene on the chromosome had been heterologously replaced with the chimeric hTfR were selected as the TfR-KI mice. […] After this, tissues for measuring fluorescence intensity (brain, heart, lung, liver, spleen, kidney, quadriceps femoris muscle, thymus, thoracic vertebrae, and femur) were collected and stored in normal saline to prevent drying. […]

Patent ID 449: negative control, 5-FAM labelled conjugate of Flip894_variant61_PEG4, a peptide without binding ability to hTfR ({CH2CO}-A[NMeY]F[dR][Aib]IY[Tyr(Me)]YN[NMeW]V[NMePhe(3-Cl)]VC; thioether N-15; not fully specified (C-terminus); also: methylation at Y2 and W11, type not given here) [reference compound]
hTfR binding ability ([1]; SPR, result in words): no binding to hTfR was observed | migration into the cells [2]: did not migrate into the cells

CC[C@H](C)[C@@H]1NC(=O)[C@H](Cc2ccc(O)cc2)NC(=O)[C@H](Cc2ccc(O)cc2)NC(=O)[C@H](CC(N)=O)NC(=O)[C@H](Cc2c[nH]c3ccccc23)NC(=O)[C@H](C(C)C)NC(=O)[C@H](Cc2ccccc2)NC(=O)[C@H](C(C)C)NC(=O)[C@H](C)NC(=O)CSC[C@@H](C(=O)NCCOCCOCCOCCOCCOCCOCCOCCOCCOCCOCCOCCOCCC(=O)N[C@@H](CCCCNC(=O)c2ccc(-c3c4ccc(=O)cc-4oc4cc(O)ccc34)c(C(=O)O)c2)C(N)=O)NC(=O)[C@H](Cc2ccc(O)cc2)N(C)C(=O)[C@H](Cc2ccc(O)cc2)NC(=O)[C@H](CCCNC(=N)N)NC(=O)[C@H](CCCNC(=N)N)NC(=O)[C@H]([C@@H](C)CC)NC1=O
localization in the brain tissue (hTfR-KI mice): reached as far as neurons such as the Purkinje cells

Patent ID 447: 5-FAM labelled conjugate of hTfR_894_variant61_PEG4 (AVXVWNYXIIXXFYC; not fully specified; PEG4 linker, 5-FAM label; (3)..(3) Xaa is MeF3C; MOD_RES (5)..(5) …ON; (8)..(8) Xaa is F4OMe; (11)..(11) Xaa is Aib; (12)..(12) Xaa is dr; MOD_RES (14)..(14) …ON)
migration into the cells [2]: into the cells was confirmed

CC[C@H](C)[C@@H]1NC(=O)[C@H](Cc2ccc(O)cc2)NC(=O)[C@H](Cc2ccc(O)cc2)NC(=O)[C@H](CC(N)=O)NC(=O)[C@H](Cc2c[nH]c3ccccc23)NC(=O)[C@H](C(C)C)NC(=O)[C@H](Cc2ccccc2)NC(=O)[C@H](C(C)C)NC(=O)[C@H](C)NC(=O)CSC[C@@H](C(N)=O)NC(=O)[C@H](Cc2ccc(O)cc2)N(C)C(=O)[C@H](Cc2ccc(O)cc2)NC(=O)[C@H](CCCNC(=N)N)NC(=O)[C@H](CCCNC(=N)N)NC(=O)[C@H]([C@@H](C)CC)NC1=O [hTfR No. 894]
migration into the brain through the BBB (TfR-KI mice): migrated into the brain through the BBB | migration to tissues (TfR-KI mice): also migrated to each tissue, mainly muscle tissues

CC[C@H](C)[C@@H]1NC(=O)[C@H](Cc2ccc(O)cc2)NC(=O)[C@H](Cc2ccc(O)cc2)NC(=O)[C@H](CC(N)=O)NC(=O)[C@H](Cc2c[nH]c3ccccc23)NC(=O)[C@H](C(C)C)CC(=O)[C@H](Cc2ccccc2)N(C)C(=O)[C@H](C(C)C)NC(=O)[C@H](C)NC(=O)CSCC(C(=O)NCCOCCOCCOCCOCCC(=O)N[C@H](CCCCNC(=O)c2ccc(-c3c4ccc(=O)cc-4oc4cc(O)ccc34)c(C(=O)O)c2)C(N)=O)NC(=O)[C@H](Cc2ccc(O)cc2)N(C)C(=O)[C@H](Cc2ccc(O)cc2)NC(=O)[C@H](CCCNC(=N)N)NC(=O)[C@H](CCCNC(=N)N)NC(=O)[C@H]([C@@H](C)CC)NC1=O (stereo partly shown) [Patent ID 446] ({CH2CO}-AV[X6]WNYYIIRRY[NMeY][ξC][PEG4][dK](X2)-NH2; thioether N-14)
migration into the cells [2]: into the cells was confirmed

Patent ID 448: 5-FAM labelled conjugate of hTfR_894_variant03_PEG4 (AVXVWNYXIIRXFYC; not fully specified; PEG4 linker, 5-FAM label; (3)..(3) Xaa is MeF3C; MOD_RES (5)..(5) …ON; (8)..(8) Xaa is F4OMe; (12)..(12) Xaa is dr; MOD_RES (14)..(14) …ON)
migration into the cells [2]: into the cells was confirmed

CC[C@H](C)[C@@H]1NC(=O)[C@H](Cc2ccc(O)cc2)NC(=O)[C@H](Cc2ccc(O)cc2)NC(=O)[C@H](CC(N)=O)NC(=O)[C@H](Cc2c[nH]c3ccccc23)NC(=O)[C@H](C(C)C)NC(=O)[C@H](Cc2ccccc2)N(C)C(=O)[C@H](C(C)C)NC(=O)[C@H](C)NC(=O)CSC[C@@H](C(=O)NCCOCCOCCOCCOCCOCCOCCOCCOCCOCCOCCOCCOCCC(N)=O)NC(=O)[C@H](Cc2ccc(O)cc2)N(C)C(=O)[C@H](Cc2ccc(O)cc2)NC(=O)[C@H](CCCNC(=N)N)NC(=O)[C@H](Cc2ccc(O)cc2)NC(=O)[C@H]([C@@H](C)CC)NC1=O [compound 121] ({CH2CO}-AV[NMeF]VWNYYIIYRY[NMeY]C[PEG12]-NH2; thioether N-15)
pKd ([1]; SPR, hTfR No. 894 variants with PEG12c linker (Table 2), read-out: KD): 7.00 to 9.00

CC[C@H](C)[C@@H]1NC(=O)[C@H](Cc2ccc(OC)cc2)NC(=O)[C@H](Cc2ccc(O)cc2)NC(=O)[C@H](CC(N)=O)NC(=O)[C@H](Cc2c[nH]c3ccccc23)N(C)C(=O)[C@H](C(C)C)NC(=O)[C@H](Cc2cccc(Cl)c2)N(C)C(=O)[C@H](C(C)C)NC(=O)[C@H](C)NC(=O)CSC[C@@H](C(N)=O)NC(=O)[C@H](Cc2ccc(O)cc2)N(C)C(=O)[C@H](Cc2ccccc2)NC(=O)[C@@H](C)NC(=O)[C@H](CCCCN)N(C)C(=O)[C@H]([C@@H](C)CC)NC1=O [compound 378]
pKd ([1]; surface plasmon resonance, hTfR, read-out: KD value for hTfR by SPR (class symbol)): 6.00 to 7.00
